Measured values: ChEMBL document CHEMBL3638971, “Fused pyrimidines” (2015)
“And” between values parts separate entries of the source, which are not always exact repeats. Identical values can stand only once.

Tests used:
[1] = biological target: RAC-alpha serine/threonine-protein kinase (Homo sapiens, UniProt P31749); experiment: TR-FRET Assay: Akt1 inhibitory activity of compounds of the present invention may be quantified0 employing the Akt1 TR-FRET assay as described in the following paragraphs. His-tagged human recombinant kinase full-length Akt1 expressed in insect cells was purchased form Invitrogen (part number PV 3599). As substrate for the kinase reaction the biotinylated peptide biotin-Ahx-KKLNRTLSFAEPG (C-terminus in am- ide form) was used which can be purchased e.g. from the company Biosynthan GmbH (Berlin-Buch, Germany).For the assay 50 nl of a IOOfold concentrated solution of the test compound in DMSO was pipetted into a black low volume 384well microtiter plate (Greiner Bio- One, Frickenhausen, Germany), 2 ul of a solution of Akt1 in assay buffer [50 mM TRIS/HCI pH 7.5, 5 mM MgCI2, 1 mM dithiothreitol, 0.02% (v/v) Triton X-100 (Sigma)] were added and the mixture was incubated for 15 min at 22C to allow pre-binding of the test compounds to the enzyme before the start of the kinase reaction.
[2] = biological target: RAC-beta serine/threonine-protein kinase (Homo sapiens, UniProt P31751); experiment: TR-FRET Assay: Akt2 inhibitory activity of compounds of the present invention was quantified employing the Akt2 TR-FRET assay as described in the following paragraphs.His-tagged human recombinant kinase full-length Akt2 expressed in insect cells and activated by PDK1 was purchased form Invitrogen (part number PV 3975). As substrate for the kinase reaction the biotinylated peptide biotin-Ahx- KKLNRTLSFAEPG (C-terminus in amide form) was used which can be purchased e.g. from the company Biosynthan GmbH (Berlinn-Buch, Germany). For the assay 50 nl of a 10Ofold concentrated solution of the test compound in DMSO was pipetted into a black low volume 384well microtiter plate (Greiner Bio- One, Frickenhausen, Germany), 2 ul of a solution of Akt2 in assay buffer [50 mM TRIS/HCI pH 7.5, 5 mM MgCI2, 1 mM dithiothreitol, 0.02% (v/v) Triton X-100 (Sigma)] were added and the mixture was incubated for 15 min at 22C to allow pre-binding of the test compounds to the enzyme before the start of the kinase reaction.
RAC-beta serine/threonine-protein kinase, sequence (P31751 whole entry): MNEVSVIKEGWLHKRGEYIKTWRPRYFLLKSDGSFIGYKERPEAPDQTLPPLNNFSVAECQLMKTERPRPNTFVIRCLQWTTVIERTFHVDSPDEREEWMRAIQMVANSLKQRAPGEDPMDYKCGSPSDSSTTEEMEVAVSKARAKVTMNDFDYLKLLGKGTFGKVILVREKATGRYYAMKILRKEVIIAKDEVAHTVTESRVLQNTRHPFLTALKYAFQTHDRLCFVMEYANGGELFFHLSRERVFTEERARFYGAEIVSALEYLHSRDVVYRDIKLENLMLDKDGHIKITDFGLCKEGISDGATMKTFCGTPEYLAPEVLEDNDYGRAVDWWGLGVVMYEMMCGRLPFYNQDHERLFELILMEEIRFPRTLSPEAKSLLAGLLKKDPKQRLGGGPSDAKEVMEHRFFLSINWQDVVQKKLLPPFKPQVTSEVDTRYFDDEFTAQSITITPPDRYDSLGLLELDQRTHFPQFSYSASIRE

RAC-alpha serine/threonine-protein kinase, sequence (P31749 whole entry): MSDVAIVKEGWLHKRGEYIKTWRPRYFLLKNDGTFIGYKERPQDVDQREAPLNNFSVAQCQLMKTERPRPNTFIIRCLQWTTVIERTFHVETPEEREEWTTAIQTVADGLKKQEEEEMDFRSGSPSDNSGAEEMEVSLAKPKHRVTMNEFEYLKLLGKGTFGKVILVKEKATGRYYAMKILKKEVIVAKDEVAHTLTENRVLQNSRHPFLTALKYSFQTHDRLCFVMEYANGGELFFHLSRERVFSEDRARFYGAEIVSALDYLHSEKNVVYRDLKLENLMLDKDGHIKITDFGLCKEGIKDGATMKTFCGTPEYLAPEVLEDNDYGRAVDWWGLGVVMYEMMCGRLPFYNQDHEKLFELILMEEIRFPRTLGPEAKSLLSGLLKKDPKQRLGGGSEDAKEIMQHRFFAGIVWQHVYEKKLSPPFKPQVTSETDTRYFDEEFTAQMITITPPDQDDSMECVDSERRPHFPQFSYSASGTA

IC50 [1]	IC50 [2]	Compound
0.007 µM	0.017 µM	Cc1nc2nc(-c3ccc(CN4CC(c5n[nH]c(-c6ccccn6)n5)C4)cc3)c(-c3ccccc3)c(C)n2n1
0.007 µM	0.012 µM	CSc1nc2nc(-c3ccc(CN4CCC(c5n[nH]c(-c6ccccn6)n5)CC4)cc3)c(-c3ccccc3)cn2n1
0.015 µM and 0.009 µM	0.031 µM and 0.02 µM	Cc1nc2nc(-c3ccc(CN4CC(c5n[nH]c(-c6ccccn6)n5)C4)cc3)c(-c3ccccc3)c(NC(C)C)n2n1

Second part, the compound before the results:

Compound	IC50 [1]	IC50 [2]
CNc1c(-c2ccccc2)c(-c2ccc(CN3CC(c4n[nH]c(-c5cccc(C)n5)n4)C3)cc2)nc2nc(C)nn12	0.011 µM	0.021 µM
Cc1cccc(-c2nc(C3CN(Cc4ccc(-c5nc6nc(C)nn6c(C)c5-c5ccccc5)cc4)C3)n[nH]2)n1	0.01 µM	0.008 µM
CS(=O)(=O)c1nc2nc(-c3ccc(CN4CCC(c5n[nH]c(-c6ccccn6)n5)CC4)cc3)c(-c3ccccc3)cn2n1	0.054 µM	0.102 µM
CSc1nc2nc(-c3ccc(CN4CC(c5n[nH]c(-c6ccccn6)n5)C4)cc3)c(-c3ccccc3)cn2n1	0.005 µM	0.1 µM
Cc1nc2nc(-c3ccc(CN4CC(c5n[nH]c(-c6ccccn6)n5)C4)cc3)c(-c3ccccc3)c(NC3CCC3)n2n1	0.032 µM	0.374 µM
CSc1nc2nc(-c3ccc(CN4CCC(c5n[nH]c(-c6cccc(C)n6)n5)CC4)cc3)c(-c3ccccc3)cn2n1	0.005 µM	0.004 µM
